How the values were obtained:
Type in all cases: biochemical
ROCK1 = ROCK1 (Homo sapiens, UniProt Q13464); assay: In vitro inhibitory activity assay ROCK1 (ADP-Glo); conditions: ATP 200 μM, Cheng-Prusoff; read-out: ROCK 1 (Ki, range of activity)
Summary of the method: (§1)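 ROCK1 or ROCK2 preincubated 30 min with compound (1% DMSO) at 25 °C, then run 1 h with 2.5 μM myelin basic protein and 200 μM ATP in Tris pH 7.5/MgCl2 buffer. ADP detected by ADP-Glo luminescence; IC50 from variable-slope fit, converted to Ki by Cheng–Prusoff.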

ROCK2 = ROCK2 (Homo sapiens, UniProt O75116); assay: In vitro inhibitory activity assay ROCK2 (ADP-Glo); conditions: ATP 200 μM, Cheng-Prusoff; read-out: ROCK2 (Ki, range of activity)
Chain of ROCK2 (O75116 whole entry): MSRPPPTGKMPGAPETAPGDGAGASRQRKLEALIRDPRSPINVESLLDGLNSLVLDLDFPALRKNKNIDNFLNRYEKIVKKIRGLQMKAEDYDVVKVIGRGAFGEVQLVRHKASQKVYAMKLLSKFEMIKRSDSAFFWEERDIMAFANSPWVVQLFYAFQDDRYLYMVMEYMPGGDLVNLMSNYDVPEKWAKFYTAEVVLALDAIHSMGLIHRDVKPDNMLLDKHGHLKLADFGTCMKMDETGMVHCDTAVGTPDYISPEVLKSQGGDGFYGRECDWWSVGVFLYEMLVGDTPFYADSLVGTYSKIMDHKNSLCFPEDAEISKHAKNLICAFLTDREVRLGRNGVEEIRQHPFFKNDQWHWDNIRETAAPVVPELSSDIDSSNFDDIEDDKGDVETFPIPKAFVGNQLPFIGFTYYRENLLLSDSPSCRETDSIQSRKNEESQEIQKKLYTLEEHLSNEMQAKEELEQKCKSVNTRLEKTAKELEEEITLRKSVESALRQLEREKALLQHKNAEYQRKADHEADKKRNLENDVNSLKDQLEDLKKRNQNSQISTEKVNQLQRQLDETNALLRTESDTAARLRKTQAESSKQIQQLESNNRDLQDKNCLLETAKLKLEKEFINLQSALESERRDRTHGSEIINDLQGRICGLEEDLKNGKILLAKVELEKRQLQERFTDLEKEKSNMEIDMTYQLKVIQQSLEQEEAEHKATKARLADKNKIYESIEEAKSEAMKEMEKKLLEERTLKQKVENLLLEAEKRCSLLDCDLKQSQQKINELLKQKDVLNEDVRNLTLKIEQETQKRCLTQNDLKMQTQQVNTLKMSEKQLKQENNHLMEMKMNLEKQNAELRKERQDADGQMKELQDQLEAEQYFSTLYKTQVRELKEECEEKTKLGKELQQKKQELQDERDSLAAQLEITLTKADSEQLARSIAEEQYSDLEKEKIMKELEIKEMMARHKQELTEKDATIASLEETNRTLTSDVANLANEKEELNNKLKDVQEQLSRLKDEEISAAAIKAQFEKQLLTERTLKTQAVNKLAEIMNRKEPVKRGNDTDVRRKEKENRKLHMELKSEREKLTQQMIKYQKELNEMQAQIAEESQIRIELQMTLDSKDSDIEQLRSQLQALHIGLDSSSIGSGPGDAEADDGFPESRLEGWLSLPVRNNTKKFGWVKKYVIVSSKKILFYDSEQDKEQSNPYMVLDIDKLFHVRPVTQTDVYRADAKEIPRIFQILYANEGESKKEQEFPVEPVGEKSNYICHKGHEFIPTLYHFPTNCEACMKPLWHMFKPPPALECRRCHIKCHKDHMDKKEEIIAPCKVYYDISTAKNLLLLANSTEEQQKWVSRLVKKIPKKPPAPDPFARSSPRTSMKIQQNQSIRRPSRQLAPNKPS
Summary of the method: as §1

PKA = PKA (Homo sapiens, UniProt P17612); assay: In vitro inhibitory activity assay for PKA (ADP-Glo), reported as selectivity ratio vs ROCK2; conditions: Ki value for PKA divided by Ki value of ROCK2
Summary of the method: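 ADP-Glo PKA assay at 25° C in 40 mM Tris pH7.5, 20 mM MgCl2, 0.1 mg/ml BSA, 50 μM DTT, 260 μM kemptide, 1% DMSO. Compound preincubated 30 mins with enzyme, then 30 minute reaction at 10 μM ATP final; luminescence read. IC50 from sigmoidal fit, Ki via Cheng-Prusoff, reported as selectivity ratio vs ROCK-2.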

Chain of ROCK1 (Q13464 whole entry): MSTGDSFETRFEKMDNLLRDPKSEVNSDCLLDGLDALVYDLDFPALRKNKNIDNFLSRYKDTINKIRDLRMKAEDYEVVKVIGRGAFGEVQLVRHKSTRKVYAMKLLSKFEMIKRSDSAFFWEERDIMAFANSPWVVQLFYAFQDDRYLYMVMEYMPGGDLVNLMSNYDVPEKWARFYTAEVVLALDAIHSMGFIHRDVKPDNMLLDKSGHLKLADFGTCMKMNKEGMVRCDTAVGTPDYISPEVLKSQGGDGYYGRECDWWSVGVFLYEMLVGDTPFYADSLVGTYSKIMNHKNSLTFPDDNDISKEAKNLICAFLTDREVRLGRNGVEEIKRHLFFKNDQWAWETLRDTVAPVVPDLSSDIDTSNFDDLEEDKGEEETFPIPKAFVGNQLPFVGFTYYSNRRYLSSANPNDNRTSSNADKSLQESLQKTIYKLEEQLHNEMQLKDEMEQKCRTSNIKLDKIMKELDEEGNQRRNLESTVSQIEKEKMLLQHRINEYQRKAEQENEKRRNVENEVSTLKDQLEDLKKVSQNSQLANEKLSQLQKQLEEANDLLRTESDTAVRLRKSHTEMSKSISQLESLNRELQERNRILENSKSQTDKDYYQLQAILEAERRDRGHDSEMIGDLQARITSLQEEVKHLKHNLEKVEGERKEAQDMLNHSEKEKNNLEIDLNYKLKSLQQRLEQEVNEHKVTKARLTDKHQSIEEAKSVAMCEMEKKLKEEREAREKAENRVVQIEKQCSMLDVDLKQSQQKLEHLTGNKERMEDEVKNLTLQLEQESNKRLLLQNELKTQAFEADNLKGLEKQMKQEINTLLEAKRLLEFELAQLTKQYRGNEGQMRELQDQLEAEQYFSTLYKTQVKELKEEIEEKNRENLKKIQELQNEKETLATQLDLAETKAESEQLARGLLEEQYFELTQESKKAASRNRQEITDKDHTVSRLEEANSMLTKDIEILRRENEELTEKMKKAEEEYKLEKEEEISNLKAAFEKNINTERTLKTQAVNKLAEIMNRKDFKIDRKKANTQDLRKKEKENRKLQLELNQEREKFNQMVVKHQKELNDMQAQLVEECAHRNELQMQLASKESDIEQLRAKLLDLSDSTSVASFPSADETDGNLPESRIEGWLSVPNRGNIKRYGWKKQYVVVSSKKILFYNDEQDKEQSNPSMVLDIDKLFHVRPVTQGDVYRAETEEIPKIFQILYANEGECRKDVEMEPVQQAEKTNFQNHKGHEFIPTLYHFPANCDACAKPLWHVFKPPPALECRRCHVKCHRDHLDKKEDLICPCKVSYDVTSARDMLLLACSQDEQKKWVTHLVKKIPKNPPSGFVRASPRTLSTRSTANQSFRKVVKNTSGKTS

Row | SMILES | Ki (ROCK1) [nM] | Ki (ROCK2) [nM] | Ratio (PKA/ROCK2) (PKA)
1 | CNC(=O)c1cc(F)cc(CNc2ncc(-c3ccnc(N)n3)c3c2CCO3)c1 [Example 59, 3-(((7-(2-Aminopyrimidin-4-yl)-2,3-dihydrofuro[3,2-c]pyridin-4-yl)amino)methyl)-5-fluoro-N-methylbenzamide] | ≤ 3 | ≤ 3 | *** (ratio≥10)
2 | Nc1nccc(-c2cnc(NCc3cccc(C(=O)NC4CCC4)c3)c3c2OCC3)n1 [Example 1, 3-(((7-(2-Aminopyrimidin-4-yl)-2,3-dihydrofuro[3,2-c]pyridin-4-yl)amino)methyl)-N-cyclobutylbenzamide] | ≤ 3 | ≤ 3 | ** (5≤ratio<10)
3 | CCCNC(=O)c1cccc(CNc2ncc(-c3ccnc(N)n3)c3c2CCO3)c1 [Example 40, 3-(((7-(2-Aminopyrimidin-4-yl)-2,3-dihydrofuro[3,2-c]pyridin-4-yl)amino)methyl)-N-propylbenzamide] | ≤ 3 | ≤ 3 | *** (ratio≥10)
4 | CC1(CNC(=O)c2cccc(CNc3ncc(-c4ccnc(N)n4)c4c3CCO4)c2)CC1 [Example 30, 3-(((7-(2-Aminopyrimidin-4-yl)-2,3-dihydrofuro[3,2-c]pyridin-4-yl)amino)methyl)-N-((1-methylcyclopropyl)methyl)benzamide] | ≤ 3 | ≤ 3 | ** (5≤ratio<10)
5 | Nc1nccc(-c2cnc(NCc3cccc(C(=O)NCC(F)(F)F)c3)c3c2OCC3)n1 [Example 12, 3-(((7-(2-Aminopyrimidin-4-yl)-2,3-dihydrofuro[3,2-c]pyridin-4-yl)amino)methyl)-N-(2,2,2-trifluoroethyl)benzamide] | 3 to 30 | ≤ 3 | *** (ratio≥10)
6 | Nc1nccc(-c2cnc(NCc3cccc(C(=O)NC4CC4F)c3)c3c2OCC3)n1 (single isomer, unassigned) [Example 45, Trans 3-(((7-(2-Aminopyrimidin-4-yl)-2,3-dihydrofuro[3,2-c]pyridin-4-yl)amino)methyl)-N-(2-fluorocyclopropyl)benzamide] | ≤ 3 | ≤ 3 | *** (ratio≥10)
7 | COCCCNC(=O)c1cccc(CNc2ncc(-c3ccnc(N)n3)c3c2CCO3)c1 [Example 8, 3-(((7-(2-Aminopyrimidin-4-yl)-2,3-dihydrofuro[3,2-c]pyridin-4-yl)amino)methyl)-N-(3-methoxypropyl)benzamide] | ≤ 3 | ≤ 3 | *** (ratio≥10)
8 | Nc1nccc(-c2cnc(NCc3cccc(C(=O)NC4CCOCC4)c3)c3c2OCC3)n1 [Example 7, 3-(((7-(2-Aminopyrimidin-4-yl)-2,3-dihydrofuro[3,2-c]pyridin-4-yl)amino)methyl)-N-(tetrahydro-2H-pyran-4-yl)benzamide] | ≤ 3 | ≤ 3 | *** (ratio≥10)
9 | Nc1nccc(-c2cnc(NCc3cccc(C(=O)NCC4CCOCC4)c3)c3c2OCC3)n1 [Example 2, 3-(((7-(2-Aminopyrimidin-4-yl)-2,3-dihydrofuro[3,2-c]pyridin-4-yl)amino)methyl)-N-((tetrahydro-2H-pyran-4-yl)methyl)benzamide] | ≤ 3 | ≤ 3 | *** (ratio≥10)

From patent US20240092790A1, “DIHYDROFUROPYRIDINE DERIVATIVES AS RHO- KINASE INHIBITORS” (CHIESI FARMACEUTICI S.P.A., priority 2020, published 2024)
